Where a SMILES comes first, the peptide text is derived from it. [ ]: non-standard residue; d: D form. β3hW = N[C@H](CC(=O)O)Cc1c[nH]c2ccccc12; β3hY = N[C@H](CC(=O)O)Cc1ccc(O)cc1; β3hR = N=C(N)NCCC[C@H](N)CC(=O)O; β3hF = N[C@H](CC(=O)O)Cc1ccccc1; β3hQ = NC(=O)CC[C@H](N)CC(=O)O; βAla = NCCC(=O)O
Target: Bcl-xL (Homo sapiens, UniProt Q07817)
Experiment: Competition fluorescence polarization
Type: binding
Conditions: competition FP Ki, relative to α-peptide 1

Sequence of Bcl-xL (Q07817 whole entry): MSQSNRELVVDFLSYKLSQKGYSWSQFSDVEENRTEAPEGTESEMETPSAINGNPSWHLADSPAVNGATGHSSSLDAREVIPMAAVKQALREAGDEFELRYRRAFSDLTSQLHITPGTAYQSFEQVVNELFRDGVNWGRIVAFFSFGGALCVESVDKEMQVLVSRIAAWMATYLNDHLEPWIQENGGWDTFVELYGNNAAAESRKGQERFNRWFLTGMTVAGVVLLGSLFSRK

Affinity for Bcl-xL, fold weaker than observed for 1: 23 fold
Structure (SMILES): CC[C@H](C)[C@H](NC(C)=O)C(=O)N[C@H](CC(=O)N[C@H](C(=O)N[C@@H](C)C(=O)N[C@@H](CCC(N)=O)CC(=O)N[C@@H](CCC(=O)O)C(=O)N[C@@H](CC(C)C)C(=O)N[C@@H](CCCNC(=N)N)CC(=O)N[C@@H](CCCNC(=N)N)C(=O)N[C@H](C(=O)NCCC(=O)N[C@@H](CC(=O)O)C(=O)N[C@@H](CCC(=O)O)C(=O)N[C@H](CC(=O)N[C@@H](CC(N)=O)C(=O)N[C@@H](C)C(=O)N[C@H](CC(=O)N[C@@H](Cc1ccc(O)cc1)C(N)=O)Cc1ccc(O)cc1)Cc1ccccc1)[C@@H](C)CC)[C@@H](C)CC)Cc1c[nH]c2ccccc12 [3c] (Ac-I[β3hW]IA[β3hQ]EL[β3hR]RI[βAla]DE[β3hF]NA[β3hY]Y-NH2)

Reference: publication PMC3364022 (Journal of the American Chemical Society, 2011)
